The source of these data is ChEMBL document CHEMBL1157234, “Isoflavonoids with antiestrogenic activity from Millettia pachycarpa” (J Nat Prod, 2006).

The target in this test is T1, Estrogen receptor (Homo sapiens, UniProt P03372).
T1 sequence (P03372 whole entry): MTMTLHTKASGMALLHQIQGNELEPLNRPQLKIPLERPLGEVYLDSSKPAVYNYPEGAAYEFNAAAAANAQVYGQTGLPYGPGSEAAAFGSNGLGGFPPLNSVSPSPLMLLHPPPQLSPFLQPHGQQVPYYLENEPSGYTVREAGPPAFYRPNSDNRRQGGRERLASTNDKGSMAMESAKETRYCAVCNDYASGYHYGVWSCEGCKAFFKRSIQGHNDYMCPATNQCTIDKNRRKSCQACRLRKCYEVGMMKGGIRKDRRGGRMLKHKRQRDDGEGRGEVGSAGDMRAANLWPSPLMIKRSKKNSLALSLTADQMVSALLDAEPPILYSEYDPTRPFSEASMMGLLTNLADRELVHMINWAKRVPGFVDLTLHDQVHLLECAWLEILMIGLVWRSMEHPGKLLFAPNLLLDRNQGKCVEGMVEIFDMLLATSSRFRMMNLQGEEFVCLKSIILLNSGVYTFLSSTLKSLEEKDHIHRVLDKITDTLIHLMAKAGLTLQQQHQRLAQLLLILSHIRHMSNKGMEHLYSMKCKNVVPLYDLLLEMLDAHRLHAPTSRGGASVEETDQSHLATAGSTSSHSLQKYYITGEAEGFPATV
The experiment in a line: Antiestrogenic activity at estrogen receptor alpha expressed in yeast cells assessed as inhibition of 17-beta-estradiol-induced beta-galactosidase activity by two hybrid assay. The test is classed as cell-based.

Take `C=C(C)C(O)Cc1c(O)c(CC=C(C)C)c(O)c2c(=O)c(-c3ccc(O)c(O)c3)coc12` (racemic): the IC50 (in general, the concentration that inhibits the measured activity by half) came to 18 µM.
For `C=C(C)C(O)Cc1c(O)c(CC=C(C)C)c2occ(-c3ccc(O)c(O)c3)c(=O)c2c1O` (racemic) [MILLEWANIN G], the IC50 is 29 µM.
On to `CC(C)=CCc1c2c(c3occ(-c4ccc(O)c(O)c4)c(=O)c3c1O)CC(C(C)(C)O)O2` (racemic) [(+/-)-FUROWANIN B], for which the IC50 worked out at 13 µM.
